Each compound was assayed against T1, HsrA (HP1043) (Helicobacter pylori, UniProt O25684) (assay: isothermal titration calorimetry). Conditions: read-out: ITC^1 / Kd.
T1 construct: gene HP_1043
T1 sequence (O25684 1-223): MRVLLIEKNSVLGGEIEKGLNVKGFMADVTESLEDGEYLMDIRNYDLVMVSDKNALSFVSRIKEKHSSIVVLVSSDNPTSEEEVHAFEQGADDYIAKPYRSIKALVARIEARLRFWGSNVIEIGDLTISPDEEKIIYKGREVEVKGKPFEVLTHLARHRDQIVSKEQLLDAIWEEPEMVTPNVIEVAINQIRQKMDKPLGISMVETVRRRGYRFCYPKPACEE
Type: binding
From the text: isothermal titration calorimetry on HsrA (HP1043)

In order of rising Kd:
1. CC1=C(C(=O)OCC(C)C)C(c2cc([N+](=O)[O-])ccc2O)C2=C(CC(C)(C)CC2=O)N1 (stereo not drawn) [MD1]  3.5 µM
2. CC1=C(C(=O)OCc2ccccc2)C(c2cc(Br)cc(Br)c2O)C2=C(CCC(C)(C)C2=O)N1 (stereo not drawn) [HM4]  4 µM
3. CC1=C(C(=O)OCc2ccccc2)C(c2cc(Br)cc([N+](=O)[O-])c2O)C2=C(CCC(C)(C)C2=O)N1 (stereo not drawn) [HM6]  5.4 µM
4. CC1=C(C(=O)OCC(C)C)C(c2cccc([N+](=O)[O-])c2)C2=C(CC(C)(C)CC2=O)N1 (stereo not drawn) [MD2]  16 µM
5. CC1=C(C(=O)OCC(C)C)C(c2cc(Br)cc([N+](=O)[O-])c2O)C2=C(CC(C)(C)CC2=O)N1 (stereo not drawn) [MD7]  23 µM
6. CC1=C(C(=O)OCC(C)C)C(c2cc(Br)ccc2O)C2=C(CC(C)(C)CC2=O)N1 (stereo not drawn) [MD6]  25 µM
